Results as given in publication PMC5945515, “Measuring glucocorticoid receptor expression in vivo with PET” (Oncotarget, 2018).
Like-named read-outs stand apart in the source and are kept apart here. One block for each compound: values may come before it.

Assays:
[1] = cited from earlier work
[2] = PET/CT and biodistribution in tumor naive C57BL6/J mice; assay type: in vivo, mouse
[3] = as above; assay type: in vivo, mouse; remark: listed apart in the source
Method: All radiotracers were administered via tail vein injection in < 300 μL PBS. Intact male C57BL6/J or nu/nu mice were treated with vehicle or mife. (25 mg/kg) via oral gavage for four days prior to injection with ∼11 MBq of ^18F-GR02. Mice were anesthetized and imaged with a Siemens Inveon small animal PET/CT at dedicated time points post injection. Each mouse was imaged until 20 million coincident events were collected. All imaging data was reconstructed, decay corrected, and analyzed with AMIDE or ASIPro software. Maximum intensity projections were generated with ASIPro software. ASIPro software was also used to draw manual two dimensional regions of interest to calculate SUV data for static or dynamic acquisitions.
(§1) At dedicated time points post injection, mice were humanely euthanized with CO2 (g) asphyxiation and blood and tissues were removed, washed, dried and weighed. The activity associated with each tissue was measured with a gamma counter. The data was decay corrected and expressed as a percentage of the injected dose per gram of tissue with PRISM software.

GR = conditions: cited from earlier work
human GR = biological target: T1, human GR (Homo sapiens, UniProt P04150); assay: Competition binding assay on cells, human GR; conditions: Supplementary Table 1; read-out: KD for human GR
T1 construct: PC3 and DU145, two human prostate cancer models with endogenous GR expression; endogenous in cells; host or cells: DU145
T1 sequence (P04150 1-777): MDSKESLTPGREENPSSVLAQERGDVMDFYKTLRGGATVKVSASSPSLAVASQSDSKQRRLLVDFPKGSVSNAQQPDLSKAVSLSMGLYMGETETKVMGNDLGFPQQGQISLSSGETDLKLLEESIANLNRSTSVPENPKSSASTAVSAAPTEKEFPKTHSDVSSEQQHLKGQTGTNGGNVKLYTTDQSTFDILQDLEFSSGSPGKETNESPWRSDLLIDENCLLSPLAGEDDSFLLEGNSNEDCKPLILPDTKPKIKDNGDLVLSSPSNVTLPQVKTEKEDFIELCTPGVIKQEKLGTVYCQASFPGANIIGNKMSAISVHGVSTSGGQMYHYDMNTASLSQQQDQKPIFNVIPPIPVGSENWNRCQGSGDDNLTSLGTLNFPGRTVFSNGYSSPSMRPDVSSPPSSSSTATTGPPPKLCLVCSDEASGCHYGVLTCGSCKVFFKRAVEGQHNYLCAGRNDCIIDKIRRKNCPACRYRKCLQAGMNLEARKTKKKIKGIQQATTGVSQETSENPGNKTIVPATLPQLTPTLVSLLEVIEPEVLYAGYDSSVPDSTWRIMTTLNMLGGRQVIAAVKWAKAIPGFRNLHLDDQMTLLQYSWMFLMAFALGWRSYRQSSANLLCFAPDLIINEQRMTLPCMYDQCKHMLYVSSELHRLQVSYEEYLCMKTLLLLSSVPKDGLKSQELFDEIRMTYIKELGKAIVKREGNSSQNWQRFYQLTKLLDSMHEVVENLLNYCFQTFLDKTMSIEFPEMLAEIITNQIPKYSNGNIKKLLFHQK
Method: The KD for subfamily 3 group C nuclear hormone receptors was determined on cells by displacing ^3H-steroidal agonists for the respective receptor.
The cold ligands and ^3H-steroids were co-incubated on cells in PBS at room temperature for one hour. Following incubation, the cells were washed twice with ice cold PBS and the unbound activity was retained for analysis. The cells were lysed with 1 mL of 1 M NaOH and collected. Bound and unbound fractions were counted in a liquid scintillation counter and expressed as a percentage of the total activity added per equal relative number of cells. […] The specific binding component was plotted against the log of the competing ligand and curve fit using a non-linear regression algorithm with PRISM software.

subcutaneous PC3 tumors = assay: Biodistribution in mice bearing subcutaneous PC3 tumors; assay type: in vivo, mouse; conditions: one hour post injection
Method: (§2) All animal experiments were conducted with prior approval from IACUC at UCSF. Five to seven week old male nu/nu, intact or adx C57BL6/J mice were purchased from Charles River. Adx mice were provided drinking water supplemented with 0.9% NaCl (aq.). Male nu/nu mice received a subcutaneous bolus of 1 × 10^7 PC3 or DU145 cells in Matrigel and growth media (1:1 v/v) in the flank for tumor imaging studies with ^18F-GR02. For subrenal capsule tumor implants, 4–6 week old male Rag2 knockout mice (Taconic Farms) were placed under anesthesia with ∼2% isoflurane. A half centimeter dorsal midline incision was performed, and one kidney was gently pulled though the incision by applying pressure to the muscle wall. The kidney capsule was lifted from the parenchyma of the kidney, and PC3 cells (5 × 10^6 in 50 μL PBS) were injected into the pocket under the capsule. […]
(§3) All radiotracers were administered via tail vein injection in < 300 μL PBS. […] All imaging data was reconstructed, decay corrected, and analyzed with AMIDE or ASIPro software. […]
as §1

[4] = system: subcutaneous DU145 tumors; assay: Biodistribution in mice bearing subcutaneous DU145 tumors; assay type: in vivo, mouse; conditions: one hour post injection
Method: as §2, §3, §1

[5] = system: subrenal capsule PC3 tumors; assay: Biodistribution in mice bearing subrenal capsule PC3 tumors; assay type: in vivo, mouse
Method: All animal experiments were conducted with prior approval from IACUC at UCSF. Five to seven week old male nu/nu, intact or adx C57BL6/J mice were purchased from Charles River. Adx mice were provided drinking water supplemented with 0.9% NaCl (aq.). Male nu/nu mice received a subcutaneous bolus of 1 × 10^7 PC3 or DU145 cells in Matrigel and growth media (1:1 v/v) in the flank for tumor imaging studies with ^18F-GR02. For subrenal capsule tumor implants, 4–6 week old male Rag2 knockout mice (Taconic Farms) were placed under anesthesia with ∼2% isoflurane. A half centimeter dorsal midline incision was performed, and one kidney was gently pulled though the incision by applying pressure to the muscle wall. The kidney capsule was lifted from the parenchyma of the kidney, and PC3 cells (5 × 10^6 in 50 μL PBS) were injected into the pocket under the capsule. The kidney was placed back and the skin incision was closed using 3 surgical sutures. The mice were treated once with Carprofen (5–10 mg/kg) to ease recovery. Mice were observed over 24 hours for signs of post-operative pain, bleeding and/or other complications. Tumor progression was followed for 7–14 days after surgery with a 14 T Agilent small animal MRI to identify tumors of suitable size to conduct the biodistribution study.
as §1

[6] = Log P determination (octanol:water); assay type: physicochemical
Method: To a microcentrifuge tube containing 1 mL of octanol:water (1:1 v/v) was added 50 μL of ^18F-GR02 (total activity = 37 MBq). The solution was vortexed vigorously for 30 sec, and the biphasic layers were allowed to separate. The layers were manually pipetted into new microcentrifuge tubes, and the activity of each fraction was read with a dose calibrator. The water fraction contained 1.7 MBq, and the octanol fraction contained 35.3 MBq.

[7] = intact male nu/nu mice, vehicle
[8] = mouse adrenalectomized, 60 minutes post injection
[9] = mouse intact, 60 minutes post injection
[10] = octanol:water 1:1, total activity 37 MBq

Structure (SMILES): CC12C=CC(=O)C=C1CCC1C2C(=O)CC2(C)C1CCC2(O)C(=O)C[18F] (stereo not drawn) [21-[18F]-prednisone]
- logP o/w ([1]; ref PMID 3495649): 2.1

- bone associated activity ([2]; intact male C57BL6/J mice, 60 minutes post injection): ~20 % ID/g
Structure (SMILES): CC12C=CC(=O)C=C1CCC1C2C(O)CC2(C)C1CCC2(O)C(=O)COCCC[18F] (stereo not drawn) [^18F-GR01]

Structure (SMILES): CC#C[C@]1(O)CC[C@H]2[C@@H]3CCC4=CC(=O)CCC4=C3[C@@H](c3ccc(N(C)C)cc3)C[C@@]21C [mife., mifepristone, reference compound]
- effect on 18F-GR02 uptake in several tissues, including liver, kidney and stomach ([2]; adx C57BL6/J mice, mife. pretreatment): suppressed ^18F-GR02 uptake to a statistically significant extent
- effect on 18F-GR02 uptake in liver, spleen, small intestine and stomach ([3]; intact C57BL6/J mice, 25 mg/kg daily oral gavage for four days, one hour post injection): statistically significant suppression

Structure (SMILES): C=CCC1Oc2cccc(O[11CH3])c2-c2ccc3c(c21)C(C)=CC(C)(C)N3 (stereo not drawn) [[11 C]-Al-438]
- logP o/w ([1]; ref PMID 17499506): 6.13

Structure (SMILES): CC1(C)O[C@@H]2C[C@H]3[C@@H]4CCC5=CC(=O)C=C[C@]5(C)[C@@]4(F)[C@@H](O)C[C@]3(C)[C@]2(C(=O)CF)O1 [21-[18F]-deoxytriamcinolone acetonide]
- Kd (GR; ref PMID 1526811): 2.1 nM

- Kd (human GR): 15.9 nM
Structure (SMILES): CC12C=CC(=O)C=C1CCC1C2C(O)CC2(C)C1CCC2(O)C(=O)CNC(=O)c1ccc(F)cc1 (stereo not drawn) [^18F-GR02]

Structure (SMILES): C=CCC1Oc2cccc(OC)c2-c2ccc3c(c21)C(C)=CC(C)(C)N3 (stereo not drawn) [[11 C]-Al-438]
- Kd (GR; ref PMID 17499506): 8.1 nM

- uptake in subcutaneous PC3 tumors after mife. (subcutaneous PC3 tumors; four days prior mife. 25 mg/kg): 0.18 ± 0.07 % ID/g
- uptake in subcutaneous PC3 tumors (subcutaneous PC3 tumors; [7]): 0.37 ± 0.1 % ID/g
- uptake in the brain across the treatment arms ([2]; C57BL6/J mice, intact/adx, vehicle/mife., 60 min post injection): 0.05–0.2 % ID/g
- Blood [2, 8]: 2.36 ± 1.6 % ID/g
- Bone [2, 8]: 1.25 ± 0.8 % ID/g
- Brain [2, 8]: 0.17 ± 0.05 % ID/g
- Heart [2, 8]: 2.39 ± 0.6 % ID/g
- Kidney [2, 8]: 13.42 ± 3.1 % ID/g
- Liver [2, 8]: 21.83 ± 3.3 % ID/g
- Lung [2, 8]: 2.15 ± 1.0 % ID/g
- Muscle [2, 8]: 1.15 ± 0.4 % ID/g
- Spleen [2, 8]: 1.41 ± 0.6 % ID/g
- Stomach [2, 8]: 5.54 ± 2.4 % ID/g
- Blood [2, 9]: 0.83 ± 0.3 % ID/g
- Kidney [2, 9]: 3.96 ± 1.9 % ID/g
- Liver [2, 9]: 7.98 ± 1.5 % ID/g
- Muscle [2, 9]: 0.36 ± 0.3 % ID/g
- Stomach [2, 9]: 0.62 ± 0.1 % ID/g
- time of peak accumulation in the liver post injection ([2]; one hour dynamic PET scan, intact male C57BL6/J mouse): ≤ 10 min
- uptake in subcutaneous DU145 tumors after mife. ([4]; four days prior mife. 25 mg/kg): 0.23 ± 0.09 % ID/g
- uptake in subcutaneous DU145 tumors [4, 7]: 0.45 ± 0.2 % ID/g
- fold higher uptake in renal capsule tumor vs subcutaneous PC3 tumor ([5]; mouse, in vivo, sc): ~16 fold
- uptake in renal capsule PC3 tumor after mife. ([5]; pretreatment with mife. 25 mg/kg, 60 minutes post injection): 2.84 ± 1.8 % ID/g
- uptake in renal capsule PC3 tumor ([5]; vehicle, 60 minutes post injection): 6.24 ± 1.0 % ID/g
- fold higher specific binding in liver vs prior GR-targeted radiotracers ([3]; compared with literature data of Supplementary Table 2): 3–10 fold
- Bone [3, 9]: 0.28 ± 0.1 % ID/g
- Brain [3, 9]: 0.06 ± 0.02 % ID/g
- Heart [3, 9]: 0.81 ± 0.5 % ID/g
- Lung [3, 9]: 0.64 ± 0.4 % ID/g
- Spleen [3, 9]: 0.63 ± 0.1 % ID/g
- activity in the octanol fraction [6, 10]: 35.3 MBq
- activity in the water fraction [6, 10]: 1.7 MBq
- log P (o/w) ([6]; octanol:water 1:1 v/v): 1.33
Structure (SMILES): CC12C=CC(=O)C=C1CCC1C2C(O)CC2(C)C1CCC2(O)C(=O)CNC(=O)c1ccc([18F])cc1 (stereo not drawn) [^18F-GR02]

- Kd (human GR): 3.8 nM
Structure (SMILES): CC12C=CC(=O)C=C1CCC1C2C(O)CC2(C)C1CCC2(O)C(=O)COCCCF (stereo not drawn) [^18F-GR01]
